ChEMBL document CHEMBL1201862, “PubChem BioAssay data set” (2004)
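1) Cells in 96-well plates. 2) Compound, 48 h, 5 concentrations. 3) Linear interpolation between surrounding doses. 4) Unreached endpoint = highest concentration. GI50 marks 50% less growth.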 Calls of active or inactive are those of the source. Rule as the data show it: active = GI50 up to about 1.1 µM and inactive = higher.

Key:
Assay in all cases: NCI anticancer screen, dose series, 48 h
HCC 2998 = tested on: HCC 2998
SNB-19 = tested on: SNB-19
KM12 = tested on: KM12
U-251 = tested on: U-251
Malme-3M = tested on: Malme-3M
CAKI-1 = tested on: CAKI-1
HCT-15 = tested on: HCT-15
IGROV-1 = tested on: IGROV-1
SF-268 = tested on: SF-268
OVCAR-4 = tested on: OVCAR-4
SW-620 = tested on: SW-620
DMS-273 = tested on: DMS-273
SK-OV-3 = tested on: SK-OV-3
MOLT-4 = tested on: MOLT-4
M14 = tested on: M14
A498 = tested on: A498
SF-539 = tested on: SF-539
SK-MEL-5 = tested on: SK-MEL-5
TK-10 = tested on: TK-10
MDA-N = tested on: MDA-N

| Compound | GI50 (HCC 2998) | GI50 (SNB-19) | GI50 (KM12) | GI50 (U-251) | GI50 (Malme-3M) | GI50 (CAKI-1) | GI50 (HCT-15) [µM] | GI50 (IGROV-1) | GI50 (SF-268) | GI50 (OVCAR-4) | GI50 (SW-620) | GI50 (DMS-273) | GI50 (SK-OV-3) | GI50 (MOLT-4) | GI50 (M14) | GI50 (A498) | GI50 (SF-539) | GI50 (SK-MEL-5) | GI50 (TK-10) | GI50 (MDA-N) |
| --- | --- | --- | --- | --- | --- | --- | --- | --- | --- | --- | --- | --- | --- | --- | --- | --- | --- | --- | --- | --- |
| CCOC(=O)CC1NC(=O)CS1 (centres undefined) | > 100 µM (inactive) | > 100 µM (inactive) | > 100 µM (inactive) | > 100 µM (inactive) | > 100 µM (inactive) | > 100 µM (inactive) | 20 | > 100 µM (inactive) | 49.7 µM (inactive) | > 100 µM (inactive) | 15.9 µM (inactive) | 37.7 µM (inactive) | > 100 µM (inactive) | > 100 µM (inactive) | > 100 µM (inactive) | > 100 µM (inactive) | > 100 µM (inactive) | > 100 µM (inactive) | > 100 µM (inactive) |  |
| C#CCN(C)C(=O)N(CC#C)N=O |  | > 100 µM (inactive) | > 100 µM (inactive) | 54.2 µM (inactive) | > 100 µM (inactive) |  | > 100 | > 100 µM (inactive) | > 100 µM (inactive) | > 100 µM (inactive) | > 100 µM (inactive) | > 100 µM (inactive) | > 100 µM (inactive) | > 100 µM (inactive) | > 100 µM (inactive) | > 100 µM (inactive) | > 100 µM (inactive) | > 100 µM (inactive) | > 100 µM (inactive) |  |
| CCc1cc(Cc2cc(CC)c(NC(=O)C3=CC(=O)CC(c4ccc(OC)cc4)O3)c(CC)c2Cl)c(Cl)c(CC)c1NC(=O)C1=CC(=O)CC(c2ccc(OC)cc2)O1 (centres undefined) | 16.7 µM (inactive) | 21.4 µM (inactive) | 10.5 µM (inactive) | 12.9 µM (inactive) | 19.1 µM (inactive) | 27.7 µM (inactive) | 25.6 | 22.4 µM (inactive) | 25.9 µM (inactive) | 25.2 µM (inactive) | 5.9 µM (inactive) | 21.7 µM (inactive) | 17 µM (inactive) | 31.8 µM (inactive) | 17 µM (inactive) | 21.7 µM (inactive) | 20.2 µM (inactive) | 20.3 µM (inactive) | 19.7 µM (inactive) |  |
| Cc1ccc(S(=O)(=O)n2cc(/C=C/C#N)c(/C=C/C#N)c2)cc1 |  | 57.9 µM (inactive) | 48.4 µM (inactive) | 94.8 µM (inactive) | > 100 µM (inactive) |  | 88.9 | > 100 µM (inactive) | 54 µM (inactive) | 59.4 µM (inactive) | 40 µM (inactive) | 49.5 µM (inactive) | > 100 µM (inactive) | 29.3 µM (inactive) | 89.7 µM (inactive) | 50.5 µM (inactive) | > 100 µM (inactive) | 39.2 µM (inactive) | > 100 µM (inactive) |  |
| Cc1nnc2n1N=C(c1ccc(-c3ccc([N+](=O)[O-])cc3)o1)CS2 | > 100 µM (inactive) | > 100 µM (inactive) | > 100 µM (inactive) | > 100 µM (inactive) | > 100 µM (inactive) | > 100 µM (inactive) | > 100 | > 100 µM (inactive) | > 100 µM (inactive) | > 100 µM (inactive) | > 100 µM (inactive) | > 100 µM (inactive) | > 100 µM (inactive) | > 100 µM (inactive) | > 100 µM (inactive) |  | > 100 µM (inactive) |  | > 100 µM (inactive) |  |
| NC(=O)c1cccc(C2OC(COP(=O)(O)O)C(O)C2O)c1 (centres undefined) | > 50 µM (inactive) | > 50 µM (inactive) | > 50 µM (inactive) | > 50 µM (inactive) | > 50 µM (inactive) | > 50 µM (inactive) | 27.4 | > 50 µM (inactive) | 36.9 µM (inactive) |  | 42.9 µM (inactive) | 48 µM (inactive) | > 50 µM (inactive) | 10.9 µM (inactive) | 20 µM (inactive) | > 50 µM (inactive) | 15.8 µM (inactive) | > 50 µM (inactive) | > 50 µM (inactive) |  |
| CC(=O)O[C@H]1CCN2C(=O)C=CC(OCc3ccccc3)C12 (some centres undefined) | > 100 µM (inactive) |  | > 100 µM (inactive) | > 100 µM (inactive) | > 100 µM (inactive) | > 100 µM (inactive) | > 100 | > 100 µM (inactive) | > 100 µM (inactive) | > 100 µM (inactive) | > 100 µM (inactive) | > 100 µM (inactive) | > 100 µM (inactive) | > 100 µM (inactive) | > 100 µM (inactive) | > 100 µM (inactive) | > 100 µM (inactive) | > 100 µM (inactive) | > 100 µM (inactive) |  |
| c1ccc(-c2cccc(-c3ccccn3)n2)nc1 [TERPYRIDINE] | 0.298 µM (active) | 0.935 µM (active) | 0.507 µM (active) | 0.548 µM (active) | 0.181 µM (active) | 0.527 µM (active) | 0.407 | 0.48 µM (active) | 0.495 µM (active) | 0.558 µM (active) | 1.06 µM (active) |  | 0.783 µM (active) | 0.308 µM (active) | 0.164 µM (active) | 1.09 µM (active) | 0.51 µM (active) | 0.246 µM (active) | 0.847 µM (active) | 0.441 µM (active) |
